Laboratory results published in the supplement of paper PMC4862054.
Several values for one entry are separate records, joined by “and”; a condition that tells them apart may be missing. Identical values can stand only once.

Legend:
[1] = test system: CAL-85-1; conditions: 72 h
Procedure, shortened: (§1)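 EC50 is the value from a fitted percent-inhibition dose-response curve, censored at the highest concentration, and rows with zero drug sensitivity score were not kept. The underlying assay seeded breast cancer cell lines in 20 µl onto 384-well plates pre-loaded with compound in 5 µl medium for 72 h. Viability was then read by CellTiter-Blue fluorescence at 560/590 nm after 2 h at 37 °C, with each plate normalised to vehicle and a positive kill control.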

[2] = test system: DU-4475; conditions: 72 h
Procedure, shortened: as §1

[3] = test system: CAL-148; conditions: 72 h
Procedure, shortened: as §1

[4] = test system: MDA-MB-453; conditions: 72 h
Procedure, shortened: as §1

[5] = test system: HDQ-P1; assay: normalised viability (% of control), CellTiter-Blue; higher = more viable cells (about 100 = DMSO control); conditions: incubation time: 72 h
Protocol: (§2)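 DSRT, CellTiter-Blue viability, 72 h incubation. Signal is normalised to DMSO and benzethonium chloride controls. Value is the normalised response at dose 9.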

[6] = test system: CAL-85-1; assay: as above; conditions: incubation time: 72 h
Protocol: as §2

[7] = test system: DU-4475; assay: as above; conditions: incubation time: 72 h
Protocol: as §2

[8] = test system: CAL-51; assay: as above; conditions: incubation time: 72 h
Protocol: as §2

[9] = test system: CAL-148; assay: as above; conditions: incubation time: 72 h
Protocol: as §2

[10] = test system: MDA-MB-453; assay: as above; conditions: incubation time: 72 h
Protocol: as §2

[11] = test system: CAL-51; conditions: 72 h
Procedure, shortened: as §1

[12] = test system: MDA-MB-436; conditions: 72 h
Procedure, shortened: (§3)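 A 20 µl suspension of breast cancer cells was placed in 384-well plates that already contained compound at 5 concentrations in 10-fold steps across a compound-specific 10,000-fold range, and the plates were left for 72 h. CellTox Green fluorescence at 485/520 nm gave cell death, and CellTiter-Glo luminescence, read after 10 min at room temperature, gave viability. Each plate was normalised to 0.1 % DMSO and a positive kill control. EC50 was fitted from the curves and censored at the top concentration.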

[13] = test system: CAL-85-1; conditions: 72 h; remark: listed apart in the source
Procedure, shortened: as §3

[14] = test system: CAL-120; conditions: 72 h
Procedure, shortened: as §3

[15] = test system: CAL-51; conditions: 72 h; remark: listed apart in the source
Procedure, shortened: as §3

[16] = test system: BT-549; conditions: 72 h
Procedure, shortened: as §3

[17] = test system: SK-BR-3; conditions: 72 h
Procedure, shortened: as §3

[18] = test system: MDA-MB-468; conditions: 72 h
Procedure, shortened: as §3

[19] = test system: MCF-10A; assay: drug sensitivity score (DSS), CellTox Green (DSS (AUC-based score)); higher = stronger drug effect (viability inhibition or cytotoxicity); extreme values may be limits of the assay; conditions: incubation time: 72 h
Procedure, shortened: (§4)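 The area under the fitted dose-response curve was used to calculate the drug sensitivity score. Cells from breast cancer lines were incubated for 72 h in 384-well plates with compound at 5 concentrations spaced 10-fold over a 10,000-fold range specific to each compound. Plates were read for CellTox Green and then CellTiter-Glo, and normalised to 0.1 % DMSO and a positive kill control.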

[20] = test system: MDA-MB-453; assay: as above; conditions: incubation time: 72 h
Procedure, shortened: as §4

[21] = test system: MDA-MB-468; assay: as above; conditions: incubation time: 72 h
Procedure, shortened: as §4

[22] = test system: MFM-223; conditions: 72 h
Procedure, shortened: as §3

[23] = test system: BT-474; conditions: 72 h
Procedure, shortened: as §3

[24] = test system: MDA-MB-231; conditions: 72 h
Procedure, shortened: as §3

[25] = test system: HDQ-P1; conditions: 72 h
Procedure, shortened: as §3

[26] = test system: DU-4475; conditions: 72 h; remark: listed apart in the source
Procedure, shortened: as §3

[27] = test system: HCC1937; conditions: 72 h
Procedure, shortened: as §3

[28] = test system: MDA-MB-453; conditions: 72 h; remark: listed apart in the source
Procedure, shortened: as §3

[29] = test system: HCC1599; conditions: 72 h
Procedure, shortened: as §3

[30] = test system: Hs578T; conditions: 72 h
Procedure, shortened: as §3

EC50, CellTiter-Glo [16] [µM] | EC50, CellTiter-Glo [18] [µM] | SMILES | normalised viability [5] | normalised viability [6] | normalised viability [7] | normalised viability [8] | normalised viability [9] | normalised viability [10] | EC50, CellTiter-Glo [15] [µM] | drug sensitivity score [19] | drug sensitivity score [20] | drug sensitivity score [21] | other results
 |  | COc1c2occc2cc2ccc(=O)oc12 [Methoxsalen] |  |  |  |  |  |  |  |  |  |  | EC50, CellTiter-Blue viability [1]: 9.05 µM; EC50, CellTiter-Blue viability [2]: 6.86 µM; EC50, CellTiter-Blue viability [3]: 6.36 µM; EC50, CellTiter-Blue viability [4]: 7.9 µM
 |  | CO[C@@H]1[C@H](N(C)C(=O)c2ccccc2)C[C@H]2O[C@]1(C)n1c3ccccc3c3c4c(c5c6ccccc6n2c5c31)C(=O)NC4 [Midostaurin] (10000 nM) | 80.1% | 78.9% | 3.76% | 4.73% | 86.3% | 61.4% |  |  |  |  | 
1.68 | 3.86 | CO[C@@]12[C@H](COC(N)=O)C3=C(C(=O)C(C)=C(N)C3=O)N1C[C@@H]1N[C@@H]12 [Mitomycin C] |  |  |  |  |  |  | 1.14 | 0 | 0 | 27.4 | EC50, CellTiter-Blue viability [1]: 3.92 µM; EC50, CellTiter-Blue viability [2]: 5.07 µM; EC50, CellTiter-Blue viability [11]: 5.79 µM; EC50, CellTiter-Blue viability [3]: 2.94 µM; EC50, CellTiter-Blue viability [4]: 3.43 µM; EC50, CellTiter-Glo [12]: 7.15 µM; EC50, CellTiter-Glo [13]: 2.42 µM; EC50, CellTiter-Glo [14]: > 10 µM; EC50, CellTiter-Glo [17]: > 10 µM
 |  | CO[C@@]12[C@H](COC(N)=O)C3=C(C(=O)C(C)=C(N)C3=O)N1C[C@@H]1N[C@@H]12 [Mitomycin C] (10000 nM) | 42.6% | 2.67% | -0.46% | 4.34% | 1.89% | 5.36% |  |  |  |  | 
 |  | CCNC(=O)c1noc(-c2cc(C(C)C)c(O)cc2O)c1-c1ccc(CN2CCOCC2)cc1 [NVP-AUY922] (1000 nM) | 32.7% | 26.6% | 2.34% | 8.3% | 18.6% | 7.53% |  |  |  |  | 
> 10 | 0.0864 | CC1(C)CCC(c2ccc(Cl)cc2)=C(CN2CCN(c3ccc(C(=O)NS(=O)(=O)c4ccc(N[C@H](CCN5CCOCC5)CSc5ccccc5)c(S(=O)(=O)C(F)(F)F)c4)cc3)CC2)C1 [Navitoclax] |  |  |  |  |  |  | 1.26 |  | 0 | 6.68 | EC50, CellTiter-Blue viability [2]: 0.286 µM; EC50, CellTiter-Blue viability [3]: 0.129 µM; EC50, CellTiter-Glo [22]: > 10 µM; EC50, CellTiter-Glo [23]: 1.68 µM; EC50, CellTiter-Glo [24]: 0.774 µM; EC50, CellTiter-Glo [25]: 0.392 µM; EC50, CellTiter-Glo [26]: 2.99 µM; EC50, CellTiter-Glo [14]: 3.9 µM; EC50, CellTiter-Glo [27]: > 10 µM; EC50, CellTiter-Glo [28]: 6.68 µM
 |  | CC1(C)CCC(c2ccc(Cl)cc2)=C(CN2CCN(c3ccc(C(=O)NS(=O)(=O)c4ccc(N[C@H](CCN5CCOCC5)CSc5ccccc5)c(S(=O)(=O)C(F)(F)F)c4)cc3)CC2)C1 [Navitoclax] (10000 nM) | 60.2% | 71.3% | 4.02% | 77% | 66.7% | 52.7% |  |  |  |  | 
> 10 |  | Cc1cn(-c2cc(NC(=O)c3ccc(C)c(Nc4nccc(-c5cccnc5)n4)c3)cc(C(F)(F)F)c2)cn1 [Nilotinib] |  |  |  |  |  |  | 0.0326 | 0 | 0 | 0 | 
 |  | Cc1cn(-c2cc(NC(=O)c3ccc(C)c(Nc4nccc(-c5cccnc5)n4)c3)cc(C(F)(F)F)c2)cn1 [Nilotinib] (10000 nM) | 84.2% and 86.2% | 86.3% and 84.9% | 102% and 86.8% | 103% and 100% | 89.7% and 84.6% | 106% and 94.7% |  |  |  |  | 
 |  | CC[C@H](CO)Nc1nc(NCc2ccccc2)c2ncn(C(C)C)c2n1 [Seliciclib] |  |  |  |  |  |  | 0.595 | 0 | 0 | 0 | 
 |  | C=CCN(/C=C1/C(=O)O[C@H](COC)[C@@]2(C)C1=C(O)C(=O)C1=C2[C@H](OC(C)=O)C[C@]2(C)C(=O)CC[C@@H]12)CC=C [Sonolisib] |  |  |  |  |  |  | 0.39 | 0 | 0 |  | 
1.01 | 0.446 | O=[N+]([O-])c1ccc2c(c1)S(=O)(=O)C=C2 [Stattic] |  |  |  |  |  |  | 1.54 | 19.5 | 2.97 | 19.8 | EC50, CellTiter-Glo [22]: 2.73 µM; EC50, CellTiter-Glo [23]: 7.66 µM; EC50, CellTiter-Glo [24]: 2.76 µM; EC50, CellTiter-Glo [29]: 10.6 µM; EC50, CellTiter-Glo [25]: 12.7 µM; EC50, CellTiter-Glo [12]: 7.93 µM; EC50, CellTiter-Glo [13]: 1.63 µM; EC50, CellTiter-Glo [26]: 16.3 µM; EC50, CellTiter-Glo [14]: 11 µM; EC50, CellTiter-Glo [27]: 2.46 µM; EC50, CellTiter-Glo [28]: 3.72 µM; EC50, CellTiter-Glo [17]: 8.89 µM; EC50, CellTiter-Glo [30]: 3.13 µM
0.565 | 9.61 | CC(C)n1cnc2c(NCCc3ccc(O)cc3)nc(-c3csc4ccccc34)nc21 [StemRegenin 1] |  |  |  |  |  |  |  | 0 | 0 | 0 | EC50, CellTiter-Glo [22]: 2.02 µM; EC50, CellTiter-Glo [25]: 4.79 µM; EC50, CellTiter-Glo [12]: 7.63 µM; EC50, CellTiter-Glo [27]: > 10 µM; EC50, CellTiter-Glo [28]: > 10 µM
7.34 | 1.2 | O=C(CCCCCCC(=O)Nc1ccccc1)NO [Vorinostat] |  |  |  |  |  |  | 2.18 | 0 | 0 | 2.22 | EC50, CellTiter-Blue viability [1]: 3.89 µM; EC50, CellTiter-Blue viability [2]: 9 µM; EC50, CellTiter-Blue viability [3]: 3.25 µM; EC50, CellTiter-Blue viability [4]: 0.96 µM; EC50, CellTiter-Glo [22]: 5.67 µM; EC50, CellTiter-Glo [23]: 3.76 µM; EC50, CellTiter-Glo [24]: 3.17 µM; EC50, CellTiter-Glo [29]: 3.99 µM; EC50, CellTiter-Glo [25]: 8.32 µM; EC50, CellTiter-Glo [13]: 2.32 µM; EC50, CellTiter-Glo [26]: 2.3 µM; EC50, CellTiter-Glo [14]: 8.47 µM; EC50, CellTiter-Glo [27]: 6.28 µM; EC50, CellTiter-Glo [28]: 1.18 µM; EC50, CellTiter-Glo [17]: 3.47 µM; EC50, CellTiter-Glo [30]: 6.67 µM
 |  | O=C(CCCCCCC(=O)Nc1ccccc1)NO [Vorinostat] (10000 nM) | 51.6% and 62.6% | 30.1% and 32.4% | 50.1% and 46.5% | 59.7% and 50.3% | 13.3% and 16% | 3.12% and 2.8% |  |  |  |  | 
